# Experimental data from publication PMC7211193, “Evaluation of absorption, distribution, metabolism, and excretion of [^14C]-rucaparib, a poly(ADP-ribose) polymerase inhibitor, in patients with advanced solid tumors” (Investigational New Drugs, 2019).
# Assay: Metabolite profiling in plasma (LC-MS-TopCount)
# Format: in vivo, human
# Method: Plasma samples from six patients were pooled using two methods: (1) A Hamilton pool plasma (0–24 h) for metabolite profile determination was prepared by combining plasma aliquots of a volume proportional to the time interval used for calculating the AUC (AUC0-24h pool) for each patient and (2) four time-point pooling samples were obtained by equal volume pool at 1, 4, 8, and 24 h across six patients. In addition, plasma samples at 1, 8, and 24 h were selected from three patients (Patients 03, 08, and 09) for metabolite profiles analysis to check the individual differences between patients. Samples collected after 24 h post dose were not included in the pooling due to the low radioactivity at later time points. All plasma samples (pooled and from individuals) were extracted at least two times with acetonitrile. All supernatants were evaporated to dryness, and the dried residues were reconstituted in 20% acetonitrile in water containing 0.1% TFA. The sample recovery was obtained by comparing the radioactivity concentrations before and after extraction, and the mean recovery was about 70%.
# Aliquots of the supernatants were injected into the HPLC, and the HPLC elutes were collected as fractions at intervals of 30 sec per well into LumaPlate-96 DeepWell microplates (PerkinElmer). Due to the low radioactivity in each plasma sample, metabolite profiles were obtained by TopCount (PerkinElmer) analysis of HPLC elutes. The fractions were dried at room temperature, and then analyzed by a TopCount NXT radiometric microplate reader (PerkinElmer) to obtain metabolite profiles. The supernatants of extracts were also analyzed using an LC-MS method to identify metabolites.
# Metabolite profiling and identification were performed on an LC system (Agilent) coupled to an LTQ Orbitrap mass spectrometer (Thermo Electron, Waltham, MA, USA) in combination with offline TopCount (LC-MS-TopCount) or online Radiomatic 625TR (LC-MS-Radiomatic; PerkinElmer). Proposed structures of the metabolites were based on accurate mass (<5 ppm) and comparison of mass spectral data of parent compound rucaparib and metabolite standard M324. The Radiomatic 625TR flow detector, equipped with a 200 μL flow cell, was operated using scintillation cocktail (Ultima-Flo M) delivered at a flow rate of 1 mL/min. Chromatography was done using a Phenomenex (Torrance, CA, USA) Luna Phenyl-Hexyl column (250 × 2 mm, 5 μm, 100 Å) at ambient temperature during the sample analysis. The mobile phase was (A) 0.05% TFA in water and (B) 0.05% TFA in acetonitrile, with a 0.2 mL/min flow rate. The gradient was as follows: 5% B over 2.1 min, to 20% B in 1.0 min, to 35% B in 16.9 min, isocratic at 35% B for 5 min, to 95% B over 5 min, and reduced to 5% B over 1 min, with total run time 45 min.
# The abundance of unchanged rucaparib and metabolites identified in plasma, urine, and feces was determined as a percentage of the TRA in the analyzed samples. Percentage of the administered dose of rucaparib and metabolites was calculated in urine and feces (formula A). The concentration of rucaparib and its metabolites in plasma (ng Eq h/mL) was calculated based on the specific activity, TRA, and percentage of peaks (formula B). The AUC0-24h value of rucaparib and its major metabolite M324 in plasma was calculated using both Hamilton method (formula C) and linear trapezoidal method (formula D). • (A) %Doseofmetabolite=TRAinurineorfeces(dpm)÷TRAinadministereddose(dpm)×%metabolitesinmatrix • (B) Metaboliteconcentrationsinplasma(ngEq/mL)=TRAinplasma(dpm/mL)specificactivity(ngEq/dpm)×%metabolitesinthematrix • (C) Hamiltonmethod:AUC0−24h(ngEqh/mL)=concentrationinHamilton(AUC0−24h)pooledplasma(ngEq/mL)×24(h) • (D) Lineartrapezoidalmethod:AUC0−24h(ngEqh/mL)=C1h/2×1h+C1h+C4h/2×(4h−1h)+C4h+C8h/2×(8h−4h)+C8h+C24h/2×(24h−8h)
# [1] = 0-24 h pooled plasma, N = 6, mean ± SD
smiles,measurement,setting,value
"CNCc1ccc(-c2[nH]c3cc(F)cc4c3c2CCNC4=O)cc1 [Rucaparib, rucaparib]","% Peak (of plasma radioactivity), Hamilton (AUC0-24h) pooled plasma",[1],64.0 ± 13.7%
same,"Concentration, Hamilton (AUC0-24h) pooled plasma",[1],335 ± 120 ng Eq/mL
same,"% Peak (of plasma radioactivity), Hamilton (AUC0-24h) pooled plasma","0-24 h pooled plasma, N = 6, mean ± SD, listed as rucaparib",64.0% and ≈ 64%
same,"% Radioactive peaks in individual plasma, Patient 03, 1 h","Patient 03, 1 h",75.0%
same,"% Radioactive peaks in individual plasma, Patient 03, 8 h","Patient 03, 8 h",66.7%
same,"% Radioactive peaks in individual plasma, Patient 03, 24 h","Patient 03, 24 h",36.1%
same,"% Radioactive peaks in individual plasma, Patient 08, 1 h","Patient 08, 1 h",92.1%
same,"% Radioactive peaks in individual plasma, Patient 08, 8 h","Patient 08, 8 h",68.2%
same,"% Radioactive peaks in individual plasma, Patient 08, 24 h","Patient 08, 24 h",38.5%
same,"% Radioactive peaks in individual plasma, Patient 09, 1 h","Patient 09, 1 h",84.6%
same,"% Radioactive peaks in individual plasma, Patient 09, 8 h","Patient 09, 8 h",82.1%
same,"% Radioactive peaks in individual plasma, Patient 09, 24 h","Patient 09, 24 h",56.5%
same,"% Radioactive peaks in individual plasma, Mean ± SD, 1 h","Patients 03, 08, 09, 1 h",83.9 ± 8.57%
same,"% Radioactive peaks in individual plasma, Mean ± SD, 8 h","Patients 03, 08, 09, 8 h",72.3 ± 8.49%
same,"% Radioactive peaks in individual plasma, Mean ± SD, 24 h","Patients 03, 08, 09, 24 h",43.7 ± 11.1%
same,"AUC0-24h, Hamilton (AUC0-24h) pooled plasma",concentration in 0-24-h pooled sample × 24 h,8040 ng Eq h/mL
same,concentration at 1 h,"human, plasma, oral, 600 mg, single pooled sample from all six patients, 1 h, read-out: Mean concentration, time point pooled plasma, 1 h",0.317 µg/mL
same,concentration at 4 h,"human, plasma, oral, 600 mg, single pooled sample from all six patients, 4 h, read-out: Mean concentration, time point pooled plasma, 4 h",0.59 µg/mL
same,concentration at 8 h,"human, plasma, oral, 600 mg, single pooled sample from all six patients, 8 h, read-out: Mean concentration, time point pooled plasma, 8 h",0.545 µg/mL
same,concentration at 24 h,"human, plasma, oral, 600 mg, single pooled sample from all six patients, 24 h, read-out: Mean concentration, time point pooled plasma, 24 h",0.151 µg/mL
same,"Mean AUC0-24h, time point pooled plasma","trapezoidal method from 1, 4, 8, 24 h pools",9360 ng Eq h/mL
